Reference: US20220133894A1, “BISPHOSPHONATE-LINKED COMPOUNDS” (OREGON HEALTH & SCIENCE UNIVERSITY, priority 2019, published 2022)

Assays:
RAW 267.4 cells = experiment: Osteo Assay pit formation, osteoclast-mediated bone degradation; assay type: cell-based, mouse
Protocol: FIG. 4 represents the KBU2046 inhibition of osteoclast function. FIG. 4A compares effects on Raf1 activation. RAW 267.4 cells were treated with RANKL for 4 days, treated with 10 μM KBU2046 for the indicated time periods, and Western blot for the denoted proteins performed. (B) Effects on cell morphology. RAW 267.4 cells were treated with RANKL and with KBU2046 for 4 days, or not, and denoted, and stained for actin (green) and DAPI (blue); white arrow denotes an actin ring, yellow arrow a resorptive cavity. Representative immunofluorescent images are depicted. (C) Tartrate resistant acid phosphatase (TRAP) expression. […] RAW 267.4 cells were plated onto Osteo Assay plates, treated with RANKL for 6 days and with KBU2046 (or vehicle for controls) as indicated and bone surface area quantified. Data are the mean±SEM (N=3 replicates) of bone surface area, expressed as the percentage of control cells; * denotes P<0.05 compared to control.
To determine whether KBU2046 inhibits osteoclast-mediated bone degradation, we used Corning Osteo Assay Surface plates, which are coated with calcium-phosphate-based bone mineral. This platform supports osteoclast growth, allowing for the quantitative measurement of bone degradation, and has previously been used to measure bisphosphonate-mediated inhibition of bone degradation (40). […]

LNCaP/AR-luc cells = experiment: Castration resistant PCa subcutaneous implantation, tumor outgrowth; assay type: in vivo, mice; conditions: subcutaneous implants, 80 mg/kg KBU2046 oral, treatment from 4 weeks
Protocol: To complete our assessments of the androgen related paradigm, the effect of KBU2046 on resistance to hormone therapy was evaluated. The outgrowth of LNCaP/AR-luc cells in castrate mice is routinely utilized as a model to emulate the transition to a castration resistant phenotype (Tran et al., Science 324, 787-790 (2009)). In this model, tumor outgrowth is detectable ˜8 weeks post implantation, and growth kinetics are typically monitored until 16 weeks post implantation. […]
LNCaP or VCaP cells cultured in hormone free media were treated with R1881 (R), KBU2046 (46) and/or enzalutamide (E). […] PSA expression was measured by qRT/PCR, normalized to GAPDH and expressed as a percent of control cells (N=3 replicates); * denotes P<0.05 for groups separated by bar. […] Data are the number of viable cells, expressed as % of control (N=3 replicates); * P<0.05 compared to control. […] Data are tumor size, expressed as luminescence intensity. All data are expressed as mean±SEM.
Castration resistant PCa subcutaneous implantation: 6-7 week old male athymic mice received trans-scrotal bilateral orchiectomy with a single incision in the midline of scrotums under general anesthesia and then allowed to recover for 10 days. […] Twice weekly tumor measurements were performed and androgen receptor activity monitored biweekly through IVIS imaging.

## O=C1c2ccccc2OCC1c1ccc(F)cc1 (stereo not drawn) [KBU2046, 3-(4-fluorophenyl)chroman-4-one]
RAW 267.4 cells; 10 μmol/L KBU2046, RANKL, 6 days
  increase of bone surface area compared with control (mean±SEM): 28%±1.4%
RAW 267.4 cells; plates pre-treated with ZA at 2, 10 and 20 μM, KBU2046 10 μM
  bone surface area: significantly increased
LNCaP/AR-luc cells
  tumor growth (outgrowth in castrate mice): did not alter
